# Experimental data as given in BindingDB's records for doi:10.1021/jm00073a011 (Glaxo Group Research, 1993).
# pIC50: −log10 of the molar value.
# Molecular target: T1, Dimer of Gag-Pol polyprotein [489-587] (Human immunodeficiency virus 1, UniProt P12497)
# T1 construct: 489-587
# Test: Protease Inhibition Assay
# Conditions: pH 6; 37 °C
# Protocol: IC50 values were obtained by assaying the enzyme against the synthetic substrate peptide […], which was tritiated at the proline residue, and then was coupled via its N-terminal lysine to an Affi-gel bead mixture. The assay was performed in 96-well microtiter filtration plates. The plates containing HIV protease and radiolabeled substrate beads were incubated with or without inhibitor. […] IC50 determinations were performed in duplicate at each concentration with mean values used for data analysis.
row,Compound,pIC50
1,CC1(C)S[C@H]([C@H](NC(=O)Cc2ccccc2)C(N)=O)N[C@H]1C(=O)NCCNC(=O)[C@@H]1N[C@@H]([C@H](NC(=O)Cc2ccccc2)C(N)=O)SC1(C)C,8.52
2,CCNC(=O)[C@@H](NC(=O)Cc1ccccc1)[C@@H]1N[C@@H](C(=O)NCCNC(=O)[C@@H]2N[C@@H]([C@H](NC(=O)Cc3ccccc3)C(=O)NCC)SC2(C)C)C(C)(C)S1,8.32
3,"COC(=O)[C@@H](NC(=O)Cc1ccccc1)[C@@H]1N[C@@H](C(=O)NCCNC(=O)[C@@H]2N[C@@H]([C@H](NC(=O)Cc3ccccc3)C(=O)OC)SC2(C)C)C(C)(C)S1 [[2R-[2a(R*),4B ] ]-4,4-[1,2-Ethanediylbis[aminocarbonyl] ]-bis[5,5-dimethyl-a-[ (phenylacetyl)amino]-2-thiazolidineacetic acid, methyl ester]]",7.22
